What was measured:
[1] = Gas hydrate inhibition test (Rocking Cell RC5); parameters: key: FAIL: The ball is stuck and/or large agglomerations or solid crystals and/or visible deposits on the cell walls.; PASS: The ball is free; solid crystals might be present, but agglomerates (large or small) break up with agitation; details: 2% by weight inhibitor, 4° C., visual evaluation after 16 hours shut-in; for gas hydrate inhibition, Test 2: 20/80 v/v deionized water/diesel; for gas hydrate inhibition, Test 1: 50/50 v/v 4% wt seasalt water/diesel
Procedure: Gas Hydrate Inhibition Test
The performances of the gas hydrate inhibitors of the invention were evaluated with a Rocking Cell RC5 by PSL Systemtechnik.
Test Fluids • Hydrocarbon: Diesel • Aq. Phase: 4% wt seasalt water or deionized water • Gas: Mix of methane, ethane, propane and butane (various isomers)
The sapphire test cells, containing a stainless steel ball, were filled with the fluids (see Table 1) and 2% by weight of inhibitor and pressurized with the gas mixture.
Each cell was the subjected to a cycle of cooling and rocking consisting of three steps: 1) flowing condition, 2) shut-in and 3) re-start flowing condition. • 1) The pressurized cells were cooled down to 4° C. over a period of 5 hours while rocking. After reaching 4° C., the cells were rocked for 12 hours. • 2) The rocking was stopped and the test cells were kept in horizontal position (shut-in) for 16 hours. • 3) At the end of the shut-in period, rocking was re-started for 4 hours. Finally the cells were heated back up to 20° C.
At the beginning of the third step, the content of the cells was visually evaluated.
Each cycle was replicated three times and the results registered.
The results of the gas hydrate inhibition tests (Table 2) are reported according to the following scale: • FAIL: The ball is stuck and/or large agglomerations or solid crystals and/or visible deposits on the cell walls. • PASS: The ball is free; solid crystals might be present, but agglomerates (large or small) break up with agitation.

[2] = Foaming power tests (Waring Blender); type: physicochemical; details: 30 seconds at 8000 rpm; for FS (foam stability, time to regenerate 50 mL of liquid), Test 4 / FV (foam volume), Test 4: 1% by weight solution in 4% sea salt water solution; for FS (foam stability, time to regenerate 50 mL of liquid), Test 3 / FV (foam volume), Test 3: 1% by weight solution in deionized water
Procedure: The foam volume (FV) and the foam stability (FS) were determined by stirring for 30 seconds at high speed (8000 rpm) with a Waring Blender 100 mL of a 1% by weight solution of the inhibitors in deionized water (Test 3) or in a 4% sea salt water solution (Test 4). The foamed composition is then transferred into a graded cylinder for the evaluation of the foam volume and the stability of the foam.
FV represent the volume in mL of foam at the end of the stirring. FS is the time in seconds required to the foamed solution to regenerate 50 mL of liquid. The longer the time, the higher the stability of the foam.

[3] = Corrosion tests, Linear Polarization Resistance (LPR); details: 10 ppm by volume inhibitor, synthetic brine, CO2, 200 ppm H2S, 80° C., compared to the blank; for % Protection, 1 hour: after 1 hour; for % Protection, 16 hours: after 16 hours
Procedure: The Linear Polarization Resistance (LPR) measurements were made with a Gamry Electrochemical Instrument system.
The LPR corrosion tests were conducted in 1 L Pyrex jacketed cells. 900 mL of synthetic brine (50/50 v/v 4.0% Seasalt water/Fresh Water) were loaded in the cell placed on a magnetic stirrer, deaerated overnight with CO2 and, finally, saturated with 200 ppm H2S gas just before testing. A clean C1018 Mild Steel rod was inserted in the corrosion cell assembly as sample probe. A graphite rod was used as the counter electrode. The temperature of the solution was brought to 80° C. for the duration of the tests and CO2 was continuously purged at a constant flow rate. The (Test 4) inhibitors were added at 10 ppm by volume of test solution.
The results are reported in Table 4 as % of protection after a fixed period of time compared to the blank, the test solution without any inhibitor, which is considered 100% corrosion.

FS (foam stability, time to regenerate 50 mL of liquid), Test 4 [2] | FV (foam volume), Test 4 [2] | FS (foam stability, time to regenerate 50 mL of liquid), Test 3 [2] | FV (foam volume), Test 3 [2] | Substance | gas hydrate inhibition, Test 2 [1] | gas hydrate inhibition, Test 1 [1] | % Protection, 1 hour [3] | % Protection, 16 hours [3]
46 s | 160 mL | 70 s | 185 mL | N,N-dibutyl-N-ethyl-cocooxyethyl ammonium ethyl sulfate | PASS | PASS | 81.4% | 90.2%
215 s | 430 mL | 260 s | 480 mL | benzylcocodimethyl ammonium chloride | FAIL | FAIL | 79.7% | 89.5%
118 s | 230 mL | 180 s | 320 mL | N,N-dibutyl-N-ethyl-soyaoxyethyl ammonium ethyl sulfate | – | – | – | –
59 s | 172 mL | 97 s | 210 mL | N,N-dibutyl-N-ethyl-cocooxyethyl ammonium chloride | – | – | 78.9% | 87.9%

Source: patent publication US11130902B2, “Gas hydrate inhibitors” (Lamberti SPA, priority 2016, dated 2021)
